Results reported in ChEMBL document CHEMBL2440080, “Synthesis and biological evaluation of novel acylhydrazone derivatives as potential antitumor agents” (Bioorg Med Chem, 2013).

Experiments:
Format in all cases: functional
RXF 393 = experiment: Cytotoxicity against human RXF393 cells after 48 hrs by sulforhodamine B assay; conditions: RXF 393, 48 h
HCC 2998 = experiment: Cytotoxicity against human HCC2998 cells after 48 hrs by sulforhodamine B assay; conditions: HCC 2998, 48 h
[1] = Cytotoxicity against human EKVX cells after 48 hrs by sulforhodamine B assay
HOP-62 = experiment: Cytotoxicity against human HOP62 cells after 48 hrs by sulforhodamine B assay; conditions: HOP-62, 48 h
HL-60(TB) = experiment: Cytotoxicity against human HL-60(TB) cells after 48 hrs by sulforhodamine B assay; conditions: HL-60, 48 h
NCI-H226 = experiment: Cytotoxicity against human NCI-H226 cells after 48 hrs by sulforhodamine B assay; conditions: NCI-H226, 48 h
OVCAR-8 = experiment: Cytotoxicity against human OVCAR8 cells after 48 hrs by sulforhodamine B assay; conditions: OVCAR-8, 48 h
MDA-MB-231 = experiment: Cytotoxicity against human MDA-MB-231 cells after 48 hrs by sulforhodamine B assay; conditions: MDA-MB-231, 48 h
NCI-H322M = experiment: Cytotoxicity against human NCI-H322M cells after 48 hrs by sulforhodamine B assay
OVCAR-5 = experiment: Cytotoxicity against human OVCAR5 cells after 48 hrs by sulforhodamine B assay; conditions: OVCAR-5, 48 h
NCI/ADR-RES = experiment: Cytotoxicity against human NCI/ADR-RES cells after 48 hrs by sulforhodamine B assay
SW-620 = experiment: Cytotoxicity against human SW620 cells after 48 hrs by sulforhodamine B assay; conditions: SW-620, 48 h
SF-268 = experiment: Cytotoxicity against human SF268 cells after 48 hrs by sulforhodamine B assay; conditions: SF-268, 48 h
UACC-257 = experiment: Cytotoxicity against human UACC257 cells after 48 hrs by sulforhodamine B assay; conditions: UACC-257, 48 h
LOX IMVI = experiment: Cytotoxicity against human LOXIMVI cells after 48 hrs by sulforhodamine B assay
SK-MEL-28 = experiment: Cytotoxicity against human SK-MEL-28 cells after 48 hrs by sulforhodamine B assay; conditions: SK-MEL-28, 48 h
K562 = experiment: Cytotoxicity against human K562 cells after 48 hrs by sulforhodamine B assay; conditions: K562, 48 h
HCT-116 = experiment: Cytotoxicity against human HCT116 cells after 48 hrs by sulforhodamine B assay; conditions: HCT-116, 48 h
A498 = experiment: Cytotoxicity against human A498 cells after 48 hrs by sulforhodamine B assay; conditions: A498, 48 h
M14 = experiment: Cytotoxicity against human M14 cells after 48 hrs by sulforhodamine B assay; conditions: M14, 48 h
SK-OV-3 = experiment: Cytotoxicity against human SKOV3 cells after 48 hrs by sulforhodamine B assay; conditions: SK-OV-3, 48 h
IGROV-1 = experiment: Cytotoxicity against human IGROV1 cells after 48 hrs by sulforhodamine B assay; conditions: IGROV-1, 48 h
ACHN = experiment: Cytotoxicity against human ACHN cells after 48 hrs by sulforhodamine B assay
HT-29 = experiment: Cytotoxicity against human HT-29 cells after 48 hrs by sulforhodamine B assay; conditions: HT-29, 48 h
COLO 205 = experiment: Cytotoxicity against human COLO205 cells after 48 hrs by sulforhodamine B assay; conditions: COLO 205, 48 h
SK-MEL-2 = experiment: Cytotoxicity against human SK-MEL-2 cells after 48 hrs by sulforhodamine B assay; conditions: SK-MEL-2, 48 h
DU-145 = experiment: Cytotoxicity against human DU145 cells after 48 hrs by sulforhodamine B assay; conditions: DU-145, 48 h
A549 = experiment: Cytotoxicity against human A549/ATCC cells after 48 hrs by sulforhodamine B assay; conditions: A549, 48 h
SNB-75 = experiment: Cytotoxicity against human SNB75 cells after 48 hrs by sulforhodamine B assay; conditions: SNB-75, 48 h
BT-549 = experiment: Cytotoxicity against human BT549 cells after 48 hrs by sulforhodamine B assay; conditions: BT-549, 48 h
MCF7 = experiment: Cytotoxicity against human MCF7 cells after 48 hrs by sulforhodamine B assay; conditions: MCF7, 48 h
HOP-92 = experiment: Cytotoxicity against human HOP92 cells after 48 hrs by sulforhodamine B assay; conditions: HOP-92, 48 h
SN12C = experiment: Cytotoxicity against human SN12C cells after 48 hrs by sulforhodamine B assay
U-251 = experiment: Cytotoxicity against human U251 cells after 48 hrs by sulforhodamine B assay; conditions: U-251, 48 h
UO-31 = experiment: Cytotoxicity against human UO31 cells after 48 hrs by sulforhodamine B assay; conditions: UO-31, 48 h
OVCAR-3 = experiment: Cytotoxicity against human OVCAR3 cells after 48 hrs by sulforhodamine B assay; conditions: OVCAR-3, 48 h
[2] = Cytotoxicity against human Hs 578T cells after 48 hrs by sulforhodamine B assay
NCI-H460 = experiment: Cytotoxicity against human NCI-H460 cells after 48 hrs by sulforhodamine B assay; conditions: NCI-H460, 48 h
KM12 = experiment: Cytotoxicity against human KM12 cells after 48 hrs by sulforhodamine B assay; conditions: KM12, 48 h
CAKI-1 = experiment: Cytotoxicity against human CAKI-1 cells after 48 hrs by sulforhodamine B assay; conditions: CAKI-1, 48 h
MOLT-4 = experiment: Cytotoxicity against human MOLT4 cells after 48 hrs by sulforhodamine B assay; conditions: MOLT-4, 48 h
786-0 = experiment: Cytotoxicity against human 786-0 cells after 48 hrs by sulforhodamine B assay; conditions: 786-0, 48 h
MDA-MB-435 = experiment: Cytotoxicity against human MDA-MB-435 cells after 48 hrs by sulforhodamine B assay; conditions: MDA-MB-435, 48 h
SR = experiment: Cytotoxicity against human SR cells after 48 hrs by sulforhodamine B assay
MDA-MB-468 = experiment: Cytotoxicity against human MDA-MB-468 cells after 48 hrs by sulforhodamine B assay; conditions: MDA-MB-468, 48 h
OVCAR-4 = experiment: Cytotoxicity against human OVCAR4 cells after 48 hrs by sulforhodamine B assay; conditions: OVCAR-4, 48 h
T47D = experiment: Cytotoxicity against human T47D cells after 48 hrs by sulforhodamine B assay
PC-3 = experiment: Cytotoxicity against human PC3 cells after 48 hrs by sulforhodamine B assay; conditions: PC-3, 48 h
SNB-19 = experiment: Cytotoxicity against human SNB19 cells after 48 hrs by sulforhodamine B assay; conditions: SNB-19, 48 h
SF-295 = experiment: Cytotoxicity against human SF295 cells after 48 hrs by sulforhodamine B assay; conditions: SF-295, 48 h
HCT-15 = experiment: Cytotoxicity against human HCT15 cells after 48 hrs by sulforhodamine B assay; conditions: HCT-15, 48 h
NCI-H23 = experiment: Cytotoxicity against human NCI-H23 cells after 48 hrs by sulforhodamine B assay; conditions: NCI-H23, 48 h
NCI-H522 = experiment: Cytotoxicity against human NCI-H522 cells after 48 hrs by sulforhodamine B assay; conditions: NCI-H522, 48 h
SF-539 = experiment: Cytotoxicity against human SF539 cells after 48 hrs by sulforhodamine B assay; conditions: SF-539, 48 h
Malme-3M = experiment: Cytotoxicity against human MALME-3M cells after 48 hrs by sulforhodamine B assay
CCRF-CEM = experiment: Cytotoxicity against human CCRF-CEM cells after 48 hrs by sulforhodamine B assay
TK-10 = experiment: Cytotoxicity against human TK10 cells after 48 hrs by sulforhodamine B assay; conditions: TK-10, 48 h
SK-MEL-5 = experiment: Cytotoxicity against human SK-MEL-5 cells after 48 hrs by sulforhodamine B assay; conditions: SK-MEL-5, 48 h
UACC-62 = experiment: Cytotoxicity against human UACC62 cells after 48 hrs by sulforhodamine B assay; conditions: UACC-62, 48 h
RPMI-8226 = experiment: Cytotoxicity against human RPMI8226 cells after 48 hrs by sulforhodamine B assay; conditions: RPMI-8226, 48 h

Compound CCN(CC)c1ccc(/C=N/NC(=O)Cc2ccc(Nc3ccnc(C(F)(F)F)c3)cc2)c(O)c1 has a GI50 (RXF 393) of 1000 nM, a GI50 (HCC 2998) of 646 nM and a GI50 [1] of 398 nM. The GI50 (HOP-62) was 501 nM, the GI50 (HL-60(TB)) was 339 nM and the GI50 (NCI-H226) was 676 nM. For the same compound, the GI50 (OVCAR-8) was 501 nM, the GI50 (MDA-MB-231) was 1120 nM and the GI50 (NCI-H322M) was 398 nM. The GI50 (OVCAR-5) was 776 nM, the GI50 (NCI/ADR-RES) was 537 nM and the GI50 (SW-620) was 813 nM. For the same compound, the GI50 (SF-268) was 537 nM, the GI50 (UACC-257) was 1910 nM and the GI50 (LOX IMVI) was 398 nM. For the same compound, the GI50 (SK-MEL-28) was 813 nM, the GI50 (K562) was 550 nM and the GI50 (HCT-116) was 398 nM. For the same compound, the GI50 (A498) was 5010 nM, the GI50 (M14) was 525 nM and the GI50 (SK-OV-3) was 363 nM. The GI50 (IGROV-1) was 501 nM, the GI50 (ACHN) was 398 nM and the GI50 (HT-29) was 676 nM. The GI50 (COLO 205) was 437 nM, the GI50 (SK-MEL-2) was 4900 nM and the GI50 (DU-145) was 813 nM. For the same compound, the GI50 (A549) was 832 nM, the GI50 (SNB-75) was 2510 nM and the GI50 (BT-549) was 1350 nM. The GI50 (MCF7) was 407 nM, the GI50 (HOP-92) was 1740 nM and the GI50 (SN12C) was 977 nM. The GI50 (U-251) was 501 nM, the GI50 (UO-31) was 389 nM and the GI50 (OVCAR-3) was 794 nM. The GI50 [2] was 2190 nM, the GI50 (NCI-H460) was 316 nM and the GI50 (KM12) was 676 nM. It also gave a GI50 (CAKI-1) of 398 nM, a GI50 (MOLT-4) of 501 nM and a GI50 (786-0) of 437 nM. For the same compound, the GI50 (MDA-MB-435) was 912 nM, the GI50 (SR) was 251 nM and the GI50 (MDA-MB-468) was 389 nM. The GI50 (OVCAR-4) was 513 nM, the GI50 (T47D) was 631 nM and the GI50 (PC-3) was 2000 nM. It also gave a GI50 (SNB-19) of 525 nM, a GI50 (SF-295) of 501 nM and a GI50 (HCT-15) of 407 nM. For the same compound, the GI50 (NCI-H23) was 1050 nM, the GI50 (NCI-H522) was 575 nM and the GI50 (SF-539) was 479 nM. The GI50 (Malme-3M) was 1000 nM, the GI50 (CCRF-CEM) was 316 nM and the GI50 (TK-10) was 417 nM. The GI50 (SK-MEL-5) was 309 nM and the GI50 (UACC-62) was 398 nM.
CCN(CC)c1ccc(/C=N/NC(=O)c2ccc(Nc3ccnc(C(F)(F)F)c3)cc2)c(O)c1 gave a GI50 (RXF 393) of 200 nM, a GI50 (HCC 2998) of 224 nM and a GI50 [1] of 195 nM. It also gave a GI50 (HOP-62) of 251 nM, a GI50 (HL-60(TB)) of 251 nM and a GI50 (NCI-H226) of 331 nM. It also gave a GI50 (OVCAR-8) of 398 nM, a GI50 (MDA-MB-231) of 398 nM and a GI50 (NCI-H322M) of 316 nM. It also gave a GI50 (OVCAR-5) of 479 nM, a GI50 (NCI/ADR-RES) of 1000 nM and a GI50 (SW-620) of 339 nM. It also gave a GI50 (SF-268) of 200 nM, a GI50 (UACC-257) of 339 nM and a GI50 (LOX IMVI) of 158 nM. The GI50 (SK-MEL-28) was 204 nM, the GI50 (K562) was 66.1 nM and the GI50 (HCT-116) was 158 nM. It also gave a GI50 (A498) of 316 nM, a GI50 (M14) of 316 nM and a GI50 (SK-OV-3) of 234 nM. For the same compound, the GI50 (IGROV-1) was 200 nM, the GI50 (ACHN) was 158 nM and the GI50 (HT-29) was 282 nM. It also gave a GI50 (COLO 205) of 275 nM, a GI50 (SK-MEL-2) of 398 nM and a GI50 (DU-145) of 501 nM. It also gave a GI50 (A549) of 331 nM, a GI50 (SNB-75) of 200 nM and a GI50 (BT-549) of 501 nM. It also gave a GI50 (MCF7) of 295 nM, a GI50 (HOP-92) of 676 nM and a GI50 (SN12C) of 363 nM. It also gave a GI50 (U-251) of 200 nM, a GI50 (UO-31) of 57.5 nM and a GI50 (RPMI-8226) of 126 nM. It also gave a GI50 (OVCAR-3) of 316 nM, a GI50 [2] of 219 nM and a GI50 (NCI-H460) of 204 nM. For the same compound, the GI50 (KM12) was 398 nM, the GI50 (CAKI-1) was 251 nM and the GI50 (MOLT-4) was 162 nM. For the same compound, the GI50 (786-0) was 182 nM, the GI50 (MDA-MB-435) was 490 nM and the GI50 (SR) was 251 nM. For the same compound, the GI50 (OVCAR-4) was 251 nM, the GI50 (T47D) was 331 nM and the GI50 (PC-3) was 501 nM. For the same compound, the GI50 (SNB-19) was 331 nM, the GI50 (SF-295) was 263 nM and the GI50 (HCT-15) was 100 nM. It also gave a GI50 (NCI-H23) of 417 nM, a GI50 (NCI-H522) of 251 nM and a GI50 (SF-539) of 200 nM. For the same compound, the GI50 (Malme-3M) was 389 nM, the GI50 (CCRF-CEM) was 120 nM and the GI50 (TK-10) was 501 nM. The GI50 (SK-MEL-5) was 324 nM and the GI50 (UACC-62) was 251 nM.
